Laboratory results from patent publication EP1415984A1, “Aryloxyarylsulfonylamino hydroxamic acid derivatives” (Pfizer Products Inc., priority 1997, dated 1999).
“And” between values parts separate entries of the source, which are not always exact repeats. Equal values may be shown once.

What was measured:
[1] = target: T1, Human Collagenase (MMP-1) (Homo sapiens, UniProt P03956); experiment: Inhibition of Human Collagenase (MMP-1), fluorogenic peptide substrate; type: biochemical; conditions: human recombinant collagenase activated with trypsin; each table line is a separate determination
T1 sequence (P03956 100-469): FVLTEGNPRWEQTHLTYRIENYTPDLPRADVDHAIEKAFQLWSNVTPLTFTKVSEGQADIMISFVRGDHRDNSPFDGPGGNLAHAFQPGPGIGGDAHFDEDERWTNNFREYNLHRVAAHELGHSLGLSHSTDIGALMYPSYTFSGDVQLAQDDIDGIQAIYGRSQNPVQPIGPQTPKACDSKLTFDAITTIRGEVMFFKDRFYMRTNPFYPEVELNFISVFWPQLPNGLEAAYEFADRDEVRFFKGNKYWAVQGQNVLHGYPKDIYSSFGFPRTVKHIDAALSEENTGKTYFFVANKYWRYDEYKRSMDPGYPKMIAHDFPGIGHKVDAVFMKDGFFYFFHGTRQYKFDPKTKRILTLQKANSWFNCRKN
Description: Inhibition of Human Collagenase (MMP-1)
Human recombinant collagenase is activated with trypsin using the following ratio: […] of collagenase. The trypsin and collagenase are incubated at room temperature for 10 minutes then a five fold excess (50 mg/10 mg trypsin) of soybean trypsin inhibitor is added.
10 mM stock solutions of inhibitors are made up in dimethyl sulfoxide and then diluted using the following Scheme: 10 mM ―> 120 µM ―> 12 µM ―> 1.2 µM ―> 0.12 µM
Twenty-five microliters of each concentration is then added in triplicate to appropriate wells of a 96 well microfluor plate. The final concentration of inhibitor will be a 1:4 dilution after addition of enzyme and substrate. Positive controls (enzyme, no inhibitor) are set up in wells D1-D6 and blanks (no enzyme, no inhibitors) are set in wells D7-D12.
Collagenase is diluted to 400 ng/ml and […] is then added to appropriate wells of the microfluor plate. Final concentration of collagenase in the assay is 100 ng/ml.
Substrate (DNP-Pro-Cha-Gly-Cys(Me)-His-Ala-Lys(NMA)-NH2) is made as a 5 mM stock in dimethyl sulfoxide and then diluted to […] in assay buffer. The assay is initiated by the addition of […] substrate per well of the microfluor plate to give a final concentration of […].
Fluorescence readings (360 nm excitation. 460 nm emission) were taken at time 0 and then at 20 minute intervals. The assay is conducted at room temperature with a typical assay time of 3 hours.
Fluorescence vs time is then plotted for both the blank and collagenase containing samples (data from triplicate determinations is averaged). […] The zero time is used as a blank for each compound at each concentration and these values are subtracted from the 120 minute data. Data is plotted as inhibitor concentration vs % control (inhibitor fluorescence divided by fluorescence of collagenase alone x 100). IC50's are determined from the concentration of inhibitor that gives a signal that is 50% of the control. […]

Human recombinant MMP-13 = Human recombinant MMP-13 (Homo sapiens, UniProt P45452); experiment: Inhibition of MMP-13, fluorogenic peptide substrate; type: biochemical; conditions: human recombinant MMP-13 activated with APMA; each table line is a separate determination
Description: Human recombinant MMP-13 is activated with 2mM APMA (p-aminophenyl mercuric acetate) for 1.5 hours, at 37°C and is diluted to […] in assay buffer (50 mM Tris, pH 7.5, 200 mM sodium chloride, 5mM calcium chloride, […], 0.02% brij). Twenty-five microliters of diluted enzyme is added per well of a 96 well microfluor plate. The enzyme is then diluted in a 1:4 ratio in the assay by the addition of inhibitor and substrate to give a final concentration in the assay of […].
10 mM stock solutions of inhibitors are made up in dimethyl sulfoxide and then diluted in assay buffer as per the inhibitor dilution scheme for inhibition of human collagenase (MMP-1): Twenty-five microliters of each concentration is added in triplicate to the microfluor plate. The final concentrations in the assay are 30 mM, 3mM, 0.3 mM, and 0.03 mM.
Substrate (Dnp-Pro-Cha-Gly-Cys(Me)-His-Ala-Lys(NMA)-NH2) is prepared as for inhibition of human collagenase (MMP-1) and […] is added to each well to give a final assay concentration of […]. Fluorescence readings (360 nm excitation; 450 emission) are taken at time 0 and every 5 minutes for 1 hour.
Positive controls consist of enzyme and substrate with no inhibitor and blanks consist of substrate only.
IC50's are determined as per inhibition of human collagenase (MMP-1). If IC50's are reported to be less than […], inhibitors are then assayed at final concentrations of 0.3 mM, 0.03 mM, 0.003 mM and 0.0003 mM.

IC50 [1] | IC50 (Human recombinant MMP-13) | Compound
360 nM and 200 nM | 1.2 nM and 0.6 nM | O=C(O)CCN(C1(C(=O)NO)CCCC1)S(=O)(=O)c1ccc(Oc2ccc(F)cc2)cc1 [Example 2, 3-[[4-(4-FLUOROPHENOXY)BENZENESULFONYL]-(1-HYDROXYCARBAMOYLCYCLOPENTYL) AMINO]PROPIONIC ACID]
1200 nM and 1800 nM | 1.6 nM and 2.3 nM | CCOC(=O)CCN(C(C)(C)C(=O)NO)S(=O)(=O)c1ccc(Oc2ccc(F)cc2)cc1 [Example 3, 3-[[4-(4-FLUOROPHENOXY)BENZENESULFONYL]-(1-HYDROXYCARBAMOYL-1-METHYLETHYL)AMINO]PROPIONIC ACID ETHYL ESTER]
3500 nM and 2000 nM and 4800 nM | 5.7 nM and 2.3 nM and 8 nM | CC(C)(C(=O)NO)N(CCC(=O)O)S(=O)(=O)c1ccc(Oc2ccc(F)cc2)cc1 [Example 4, 3-[[4-(4-FLUOROPHENOXY)BENZENESULFONYL)-(1-HYDROXYCARBAMOYL-1-METHYLETHYL)AMINO]PROPIONIC ACID]
